Test results published in PubChem BioAssay (NCI).
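Step 1: Grow cells in 96-well plates. Step 2: Expose to compound for 48 hours at 5 concentrations. Step 3: Interpolate endpoints linearly; if unreached, use highest concentration. GI50 is the concentration that inhibits growth by half. TGI: total growth inhibition.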

How the values were obtained:
Assay in all cases: inhibition of tumour cell growth, NCI panel, 48 h
PC-3 prostate = system: PC-3 prostate
SF-268 CNS = system: SF-268 CNS
NCI-H23 lung = system: NCI-H23 lung
HCT-15 colon = system: HCT-15 colon
DU-145 prostate = system: DU-145 prostate
MALME-3M melanoma = system: MALME-3M melanoma
SNB-19 CNS = system: SNB-19 CNS
LOX IMVI melanoma = system: LOX IMVI melanoma
HOP-62 NSCLC = system: HOP-62 NSCLC
SK-MEL-2 melanoma = system: SK-MEL-2 melanoma
MDA-MB-231 breast = system: MDA-MB-231 breast
SK-MEL-5 melanoma = system: SK-MEL-5 melanoma
COLO 205 colon = system: COLO 205 colon
SR leukemia = system: SR leukemia
OVCAR-8 ovarian = system: OVCAR-8 ovarian
HCT-116 colon = system: HCT-116 colon
UACC-62 melanoma = system: UACC-62 melanoma
ACHN renal = system: ACHN renal
SN12C renal = system: SN12C renal
786-0 renal = system: 786-0 renal
SF-539 CNS = system: SF-539 CNS
OVCAR-3 ovarian = system: OVCAR-3 ovarian
SW-620 colon = system: SW-620 colon
HCC-2998 colon = system: HCC-2998 colon
SK-OV-3 ovarian = system: SK-OV-3 ovarian
NCI-H460 lung = system: NCI-H460 lung
T-47D breast = system: T-47D breast
UO-31 renal = system: UO-31 renal
BT-549 breast = system: BT-549 breast
SK-MEL-28 melanoma = system: SK-MEL-28 melanoma
NCI-H226 lung = system: NCI-H226 lung
HOP-92 NSCLC = system: HOP-92 NSCLC
K-562 leukemia = system: K-562 leukemia
RPMI-8226 leukemia = system: RPMI-8226 leukemia
MOLT-4 leukemia = system: MOLT-4 leukemia
OVCAR-4 ovarian = system: OVCAR-4 ovarian
M14 melanoma = system: M14 melanoma
OVCAR-5 ovarian = system: OVCAR-5 ovarian
A498 renal = system: A498 renal
U251 CNS = system: U251 CNS
NCI/ADR-RES ovarian = system: NCI/ADR-RES ovarian
EKVX NSCLC = system: EKVX NSCLC
CAKI-1 renal = system: CAKI-1 renal
HS 578T breast = system: HS 578T breast
SF-295 CNS = system: SF-295 CNS
A549 NSCLC = system: A549 NSCLC
MCF7 breast = system: MCF7 breast
HL-60(TB) leukemia = system: HL-60(TB) leukemia
TK-10 renal = system: TK-10 renal
SNB-75 CNS = system: SNB-75 CNS
MDA-MB-435 = system: MDA-MB-435
UACC-257 melanoma = system: UACC-257 melanoma
CCRF-CEM leukemia = system: CCRF-CEM leukemia
KM12 colon = system: KM12 colon
HT29 colon = system: HT29 colon
NCI-H522 lung = system: NCI-H522 lung
IGROV1 ovarian = system: IGROV1 ovarian

Work on `COc1cc(C#N)cc(OC)c1OCCOCCOc1c(OC)cc(C#N)cc1OC` yielded a GI50 (PC-3 prostate) of 31.9 µM, a TGI (PC-3 prostate) greater than 100 µM and a GI50 (SF-268 CNS) greater than 100 µM. For the same compound, the TGI (SF-268 CNS) was greater than 100 µM, the GI50 (NCI-H23 lung) was greater than 100 µM and the TGI (NCI-H23 lung) was greater than 100 µM. It also gave a GI50 (HCT-15 colon) greater than 100 µM, a TGI (HCT-15 colon) greater than 100 µM and a GI50 (DU-145 prostate) greater than 100 µM. The TGI (DU-145 prostate) was greater than 100 µM, the GI50 (MALME-3M melanoma) was 58.1 µM and the TGI (MALME-3M melanoma) was greater than 100 µM. For the same compound, the GI50 (SNB-19 CNS) was 94.4 µM, the TGI (SNB-19 CNS) was greater than 100 µM and the GI50 (LOX IMVI melanoma) was greater than 100 µM. For the same compound, the TGI (LOX IMVI melanoma) was greater than 100 µM, the GI50 (HOP-62 NSCLC) was greater than 100 µM and the TGI (HOP-62 NSCLC) was greater than 100 µM. The GI50 (SK-MEL-2 melanoma) was greater than 100 µM, the TGI (SK-MEL-2 melanoma) was greater than 100 µM and the GI50 (MDA-MB-231 breast) was 88.9 µM. For the same compound, the TGI (MDA-MB-231 breast) was greater than 100 µM, the GI50 (SK-MEL-5 melanoma) was 69.8 µM and the TGI (SK-MEL-5 melanoma) was greater than 100 µM. The GI50 (COLO 205 colon) was 37.2 µM, the TGI (COLO 205 colon) was greater than 100 µM and the GI50 (SR leukemia) was 4.33 µM. The TGI (SR leukemia) was greater than 100 µM, the GI50 (OVCAR-8 ovarian) was 51.3 µM and the TGI (OVCAR-8 ovarian) was greater than 100 µM. The GI50 (HCT-116 colon) was greater than 100 µM, the TGI (HCT-116 colon) was greater than 100 µM and the GI50 (UACC-62 melanoma) was 33.1 µM. For the same compound, the TGI (UACC-62 melanoma) was greater than 100 µM, the GI50 (ACHN renal) was greater than 100 µM and the TGI (ACHN renal) was greater than 100 µM. The GI50 (SN12C renal) was greater than 100 µM, the TGI (SN12C renal) was greater than 100 µM and the GI50 (786-0 renal) was greater than 100 µM. The TGI (786-0 renal) was greater than 100 µM, the GI50 (SF-539 CNS) was greater than 100 µM and the TGI (SF-539 CNS) was greater than 100 µM. The GI50 (OVCAR-3 ovarian) was greater than 100 µM, the TGI (OVCAR-3 ovarian) was greater than 100 µM and the GI50 (SW-620 colon) was greater than 100 µM. It also gave a TGI (SW-620 colon) greater than 100 µM, a GI50 (HCC-2998 colon) greater than 100 µM and a TGI (HCC-2998 colon) greater than 100 µM. For the same compound, the GI50 (SK-OV-3 ovarian) was greater than 100 µM, the TGI (SK-OV-3 ovarian) was greater than 100 µM and the GI50 (NCI-H460 lung) was 84.6 µM. For the same compound, the TGI (NCI-H460 lung) was greater than 100 µM, the GI50 (T-47D breast) was 21.7 µM and the TGI (T-47D breast) was greater than 100 µM. The GI50 (UO-31 renal) was 26.4 µM, the TGI (UO-31 renal) was greater than 100 µM and the GI50 (BT-549 breast) was 25.3 µM. It also gave a TGI (BT-549 breast) of 73.2 µM, a GI50 (SK-MEL-28 melanoma) greater than 100 µM and a TGI (SK-MEL-28 melanoma) greater than 100 µM. It also gave a GI50 (NCI-H226 lung) of 81.2 µM, a TGI (NCI-H226 lung) greater than 100 µM and a GI50 (HOP-92 NSCLC) of 10.3 µM. For the same compound, the TGI (HOP-92 NSCLC) was 78.4 µM, the GI50 (K-562 leukemia) was 11.7 µM and the TGI (K-562 leukemia) was 37.1 µM. For the same compound, the GI50 (RPMI-8226 leukemia) was 29.9 µM, the TGI (RPMI-8226 leukemia) was greater than 100 µM and the GI50 (MOLT-4 leukemia) was 21.3 µM. For the same compound, the TGI (MOLT-4 leukemia) was greater than 100 µM, the GI50 (OVCAR-4 ovarian) was 73.5 µM and the TGI (OVCAR-4 ovarian) was greater than 100 µM. It also gave a GI50 (M14 melanoma) of 52.2 µM, a TGI (M14 melanoma) greater than 100 µM and a GI50 (OVCAR-5 ovarian) greater than 100 µM. For the same compound, the TGI (OVCAR-5 ovarian) was greater than 100 µM, the GI50 (A498 renal) was 35.4 µM and the TGI (A498 renal) was greater than 100 µM. For the same compound, the GI50 (U251 CNS) was greater than 100 µM, the TGI (U251 CNS) was greater than 100 µM and the GI50 (NCI/ADR-RES ovarian) was 24.8 µM. The TGI (NCI/ADR-RES ovarian) was greater than 100 µM, the GI50 (EKVX NSCLC) was greater than 100 µM and the TGI (EKVX NSCLC) was greater than 100 µM. For the same compound, the GI50 (CAKI-1 renal) was greater than 100 µM, the TGI (CAKI-1 renal) was greater than 100 µM and the GI50 (HS 578T breast) was greater than 100 µM. For the same compound, the TGI (HS 578T breast) was greater than 100 µM, the GI50 (SF-295 CNS) was 84.9 µM and the TGI (SF-295 CNS) was greater than 100 µM. The GI50 (A549 NSCLC) was greater than 100 µM, the TGI (A549 NSCLC) was greater than 100 µM and the GI50 (MCF7 breast) was 63.4 µM. For the same compound, the TGI (MCF7 breast) was greater than 100 µM, the GI50 (HL-60(TB) leukemia) was 19 µM and the TGI (HL-60(TB) leukemia) was 85.7 µM. It also gave a GI50 (TK-10 renal) greater than 100 µM, a TGI (TK-10 renal) greater than 100 µM and a GI50 (SNB-75 CNS) greater than 100 µM. For the same compound, the TGI (SNB-75 CNS) was greater than 100 µM, the GI50 (MDA-MB-435) was greater than 100 µM and the TGI (MDA-MB-435) was greater than 100 µM. For the same compound, the GI50 (UACC-257 melanoma) was 99.1 µM, the TGI (UACC-257 melanoma) was greater than 100 µM and the GI50 (CCRF-CEM leukemia) was 38.8 µM. For the same compound, the TGI (CCRF-CEM leukemia) was greater than 100 µM, the GI50 (KM12 colon) was 51.7 µM and the TGI (KM12 colon) was greater than 100 µM. The GI50 (HT29 colon) was greater than 100 µM, the TGI (HT29 colon) was greater than 100 µM and the GI50 (NCI-H522 lung) was 31.2 µM. For the same compound, the TGI (NCI-H522 lung) was greater than 100 µM, the GI50 (IGROV1 ovarian) was 89.2 µM and the TGI (IGROV1 ovarian) was greater than 100 µM.
